Measurements as given in US11554171B2, “Compounds and methods for the targeted degradation of bromodomain-containing proteins” (Arvinas Operations, Inc., priority 2015, dated 2023).

How the values were obtained:
SU-DHL-6 xenografts = experiment: In vivo SU-DHL-6 xenografts efficacy; details: CB17 SCID mice
Procedure: In vivo SU-DHL-6 Xenografts Efficacy
The 4-5 weeks old male CB17 SCID mice were implanted subcutaneously with 5 million SU-DH-L6 GCB-DLBCL cells (in 200 ul volume of 3:1 matrigel:PBS). After 14 days, mice bearing 180-200 mm^3 tumors were randomized into three groups with ten mice in each group while ensuring identical (±5 mm^3) mean tumor volume in each group. […] Tumor volume was monitored twice per week using calipers and body weights were determined daily during the course of the study.

22RV-1 tumor xenograft = experiment: In vivo 22Rv1 xenografts efficacy; design: species or system mice; details: 14 day
Procedure: (§1) Mice were housed in pathogen-free animal facilities at New England Life Sciences (NELS, New Haven, Conn.). All experiments were conducted under an IACUC protocol that was approved by the NELS IACUC committee. Male Nu/Nu mice and CB17 SCID mice were obtained at 4-5 weeks age from Charles River Laboratories and implanted subcutaneously with 5×10^6 22Rv1 cells or 5×10^6 VCaP cells in Matrigel (Corning Life Sciences). After 10-14 days, mice bearing >200 mm^3 tumors were randomized into indicated number of groups with ten mice in each group while ensuring identical (±5 mm^3) mean tumor volume in each group. Dosing was carried out through the indicated route and with the indicated schedule for each drug for up to three weeks, depending on the experiment. Mice were sacrificed eight hours after the final dose. Blood was collected, processed to plasma, and flash frozen for PK analysis. Tissues were harvested and flash frozen for further analysis. All PK analysis was carried out at Drumetix Laboratories (Greensboro, N.C.). 2 out of 10 animals in each study arm were randomly excluded in pharmacodynamic analysis, for greater technical ease of running a 20-well protein gel. For PSA ELISA, only samples with at least 25 uL plasma remaining after PK analysis were utilized using the Cell Signaling PathScan® Total PSA/KLK3 Sandwich ELISA Kit #14119 following the manufacturer's protocol. […]

BRD4 [1] = target: T1, BRD4 (Homo sapiens, UniProt O60885); experiment: Immunoblotting, BRD4 degradation; format: cell-based; design: compounds which function to recruit endogenous proteins, e.g., BRd4, to E3 Ubiquitin Ligase for ubiquitination and degradation; endogenous in cells; host or cells: 22Rv1, VCaP, LnCaP95
Excerpt: (§2) 22Rv1 and VCaP cell lines were purchased from ATCC. LnCap95 cells were a generous gift from Dr. Alan Meeker at The Johns Hopkins University School of Medicine. BRD2 (#5848), BRD4 (#13440), PARP (#9532), c-Myc (#5605) antibodies were purchased from cell signaling. BRD3 (sc-81202) antibody was purchased from Santa Cruz Biotech. Antibodies used for immunohistochemistry were c-MYC (abcam #ab32072) and BRD4 (Bethyl Laboratories #a301-985a50). Actin and Tubulin antibodies were purchased from Sigma.
(§3) Cells were lysed in RIPA buffer (Thermo Fisher Cat #89900) supplemented with protease inhibitors (Pierce™ Protease Inhibitor Tablets, EDTA-free Cat #88266). Lysates were centrifuged at 16,000×g and supernatants were used for SDS-PAGE. Western blotting was carried out following standard protocols.

22RV-1 cells [2] = experiment: Apoptosis assay (Caspase-Glo 3/7); format: cell-based; details: FIG. 5
Procedure: (§4) 22RV-1 cells are seeded at 5,000 cells/well at a volume of 75 μL/well in RPMI+10% FBS media in 96-well plates and grown overnight at 37 C. Cells are dosed with compounds at 4× concentration diluted in 0.4% DMSO; compounds are serially diluted 1:3 for 8-point dose curve. 25 ul of compounds is added to cells for a final concentration starting at 300 nM-0.3 nM in 0.1% DMSO and incubated for 48 hrs. After 48 hrs, 100 ul of Caspase-Glo® 3/7 (Promega Caspase-Glo 3/7 Assay #G8093 is added and incubated for 30 minutes, then read on luminometer. Data is analyzed and plotted using GraphPad Prism software.

22RV-1 cells [3] = experiment: Cell proliferation assay (CellTiter-Glo); format: cell-based; details: FIG. 4
Procedure: as §4, with “10-point” for “8-point”, “72” for “48”, “hrs. In a separate plate, 100 ul of 5,000 cells/well are plated in 8 wells, 100 ul of CellTiter-Glo (CellTiter-Glo® Luminescent Cell Viability Assay, Promega #G7573) is added and incubated for 30 minutes, then read on luminometer to assess initial signal for cell growth.” for “hrs.”, “CellTiter-Glo” for “Caspase-Glo® 3/7 (Promega Caspase-Glo 3/7 Assay #G8093”

BRD3 = target: T2, BRD3 (Homo sapiens, UniProt Q15059); experiment: Immunoblotting, BRD3 degradation; format: cell-based; details: 22RV-1, VCaP, and LnCaP95 cells (FIG. 1)
T2 construct: endogenous in cells; host or cells: 22Rv1, VCaP, LnCaP95
Excerpt: as §2, §3

BRD4 [4] = target: T1, BRD4; experiment: BRD4 degradation in 22RV-1 tumor xenograft study; format: in vivo; design: from tissue; host or cells: 22Rv1 tumour xenograft harvested from mice; details: 14-day 22RV-1 tumor xenograft study; dosed subcutaneously to mice at 10 mg/kg (qd) for 2 weeks (FIG. 6)
Procedure: As a comparison, OTX-015 was also included (50 mg/kg, p.o., qd). Example 77 was dosed subcutaneously to mice at 10 mg/kg (qd) for 2 weeks.
as §1, with “gel.” for “gel. For PSA ELISA, only samples with at least 25 uL plasma remaining after PK analysis were utilized using the Cell Signaling PathScan® Total PSA/KLK3 Sandwich ELISA Kit #14119 following the manufacturer's protocol.”

BRD2 = target: T3, BRD2 (Homo sapiens, UniProt P25440); experiment: Immunoblotting, BRD2 degradation; format: cell-based; details: 22RV-1, VCaP, and LnCaP95 cells (FIG. 1)
T3 construct: endogenous in cells; host or cells: 22Rv1, VCaP, LnCaP95
Excerpt: as §2, §3

c-myc in 22RV-1 cells = experiment: Human c-myc ELISA assay; format: cell-based; details: for Emax / DC50: Homo sapiens; for Emax: 22Rv1, 18 h, read-out: Degradation of BRD4: Maximum inhibition (%) c-Myc ELISA in 22RV1 cells; for DC50: 22Rv1, read-out: Degradation of BRD4: DC50 (uM) c-Myc ELISA in 22RV1 cells
Outline: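 c-myc levels measured by ELISA in RIPA lysates of 22RV-1 cells, calibrated with a 333-0 pg/ml standard curve. Lysates came from cells exposed for 18 h to an 8-point, 1:3 dose series starting at 300 nM or 1 μM final in 0.1% DMSO. Suppression potency given as DC50.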

T2 sequence (Q15059 whole entry): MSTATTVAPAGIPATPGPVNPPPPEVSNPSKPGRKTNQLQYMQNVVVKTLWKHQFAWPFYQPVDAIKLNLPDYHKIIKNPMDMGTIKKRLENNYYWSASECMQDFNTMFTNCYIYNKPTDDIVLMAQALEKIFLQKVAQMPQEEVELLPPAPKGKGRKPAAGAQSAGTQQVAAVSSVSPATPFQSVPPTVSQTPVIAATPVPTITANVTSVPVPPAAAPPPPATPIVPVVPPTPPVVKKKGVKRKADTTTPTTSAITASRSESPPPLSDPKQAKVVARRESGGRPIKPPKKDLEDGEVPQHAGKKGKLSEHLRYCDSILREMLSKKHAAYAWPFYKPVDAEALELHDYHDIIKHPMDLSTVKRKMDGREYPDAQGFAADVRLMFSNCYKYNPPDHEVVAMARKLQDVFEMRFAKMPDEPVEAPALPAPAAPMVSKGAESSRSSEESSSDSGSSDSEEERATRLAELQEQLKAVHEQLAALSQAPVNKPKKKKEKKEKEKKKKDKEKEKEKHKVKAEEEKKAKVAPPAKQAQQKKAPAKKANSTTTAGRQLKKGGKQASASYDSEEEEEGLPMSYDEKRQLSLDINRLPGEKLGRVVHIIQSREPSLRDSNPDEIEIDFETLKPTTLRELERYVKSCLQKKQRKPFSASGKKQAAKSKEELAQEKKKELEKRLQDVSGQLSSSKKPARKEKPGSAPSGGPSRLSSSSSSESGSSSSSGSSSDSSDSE
T3 sequence (P25440 whole entry): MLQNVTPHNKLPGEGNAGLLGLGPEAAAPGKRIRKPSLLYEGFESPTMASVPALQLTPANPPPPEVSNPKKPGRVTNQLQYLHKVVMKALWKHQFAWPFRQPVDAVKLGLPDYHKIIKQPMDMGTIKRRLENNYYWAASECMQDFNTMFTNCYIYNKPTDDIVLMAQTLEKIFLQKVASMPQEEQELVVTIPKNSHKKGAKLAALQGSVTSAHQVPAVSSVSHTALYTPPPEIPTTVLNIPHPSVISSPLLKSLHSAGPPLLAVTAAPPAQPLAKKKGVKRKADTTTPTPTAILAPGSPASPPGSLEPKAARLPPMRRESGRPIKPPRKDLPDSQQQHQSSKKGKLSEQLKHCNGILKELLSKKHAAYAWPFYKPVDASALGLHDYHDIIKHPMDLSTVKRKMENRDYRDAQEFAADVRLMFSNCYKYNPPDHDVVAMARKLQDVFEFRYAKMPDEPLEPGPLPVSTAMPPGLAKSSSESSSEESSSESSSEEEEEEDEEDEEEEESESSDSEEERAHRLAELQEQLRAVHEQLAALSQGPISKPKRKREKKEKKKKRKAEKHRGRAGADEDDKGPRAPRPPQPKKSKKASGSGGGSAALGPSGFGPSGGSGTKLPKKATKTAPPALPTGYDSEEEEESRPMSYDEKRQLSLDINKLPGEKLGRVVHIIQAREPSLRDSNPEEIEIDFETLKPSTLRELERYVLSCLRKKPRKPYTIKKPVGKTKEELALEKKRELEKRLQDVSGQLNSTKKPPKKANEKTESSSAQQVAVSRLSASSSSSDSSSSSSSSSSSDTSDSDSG

Question: Which “in vivo growth of SU-DHL-6 xenografts” value (SU-DHL-6 xenografts; daily po administration of 25MPK (FIG. 10)) does the source give for `Cc1sc2c(c1C)C(c1ccc(Cl)cc1)=N[C@@H](CC(=O)Nc1ccc(O)cc1)c1nnc(C)n1-2` [OTX015, reference compound] here?
Answer: Its value is “no effect”.

Question: Which “tumor response in 22RV-1 mice tumor xenograft model, comparator” value (22RV-1 tumor xenograft; OTX-015 as comparison (FIG. 7)) does the source give for `Cc1sc2c(c1C)C(c1ccc(Cl)cc1)=N[C@@H](CC(=O)Nc1ccc(O)cc1)c1nnc(C)n1-2` [OTX-015, reference compound] here?
Answer: Its value is “tumor growth inhibition”.

Question: With `Cc1ncsc1-c1ccc([C@H](C)NC(=O)[C@@H]2C[C@@H](O)CN2C(=O)[C@@H](NC(=O)COCCCOCCNC(=O)C[C@@H]2N=C(c3ccc(Cl)cc3)c3c(sc(C)c3C)-n3c(C)nnc32)C(C)(C)C)cc1` [Example 77, (2S, 4R)-1-[(2S)-2-{2-[3-(2-{2-[(9S)-7-(4-chlorophenyl)-4,5,13-trimethyl-3-thia-1,8,11,12-tetraazatricyclo[8.3.0.0^2,^6]trideca-2(6),4,7,10,12-pentaen-9-yl]acetamido}ethoxy)propoxy]acetamido}-3,3-dimethylbutanoyl]-4-hydroxy-N-[(1S)-1-[4-(4-methyl-1,3-thiazol-5-yl)phenyl]ethyl]pyrrolidine-2-carboxamide] as the molecule, how does the “tumor response in 22RV-1 mice tumor xenograft model” value (22RV-1 tumor xenograft; subcutaneous dosing (FIG. 7)) read?
Answer: The value was “tumor regression”.

Question: And the “degradation of BRD4” value (BRD4 [1]; 22RV-1, VCaP, and LnCaP95 cells (FIG. 1))?
Answer: The value was “degradation”.

Question: And the “BRD4 degradation after pretreatment with an excess of VHL ligand ARV-056” value (BRD4 [1]; FIG. 2)?
Answer: The value was “blocked”.

Question: And the “BRD4 degradation in presence of proteasome inhibitor carfilzomib” value (BRD4 [1]; FIG. 2)?
Answer: The value was “blocked”.

Question: And the “caspase activation in prostate cancer cell lines” value (22RV-1 cells [2])?
Answer: The value was “caspase activation”.

Question: And the “proliferation inhibition of prostate cancer cell growth” value (22RV-1 cells [3])?
Answer: Its value is “proliferation inhibition”.

Question: What about the “degradation of BRD3” value (BRD3) of the same molecule?
Answer: The value was “degradation”.

Question: And the “degradation of BRD4 in tumor xenograft” value (BRD4 [4])?
Answer: Its value is “degradation of BRD4”.

Question: What about the “degradation of BRD2” value (BRD2) of the same molecule?
Answer: The value was “degradation”.

Question: And the “suppression of cellular c-MYC levels measured by ELISA” value (c-myc in 22RV-1 cells; FIG. 3)?
Answer: Its value is “suppression”.

Question: What about the Emax (c-myc in 22RV-1 cells) of the same molecule?
Answer: The Emax was 100%.

Question: What about the DC50 (c-myc in 22RV-1 cells) of the same molecule?
Answer: The DC50 was under 0.01 µM.

Question: With `Cc1ncsc1-c1ccc([C@H](C)NC(=O)[C@@H]2C[C@@H](O)CN2C(=O)[C@@H](NC(=O)c2cc3cc(O[C@H]4C[C@@H](NC(=O)C[C@@H]5N=C(c6ccc(Cl)cc6)c6c(sc(C)c6C)-n6c(C)nnc65)C4)ccc3o2)C(C)(C)C)cc1` [Example 195, (2S,4R)-1-[(2S)-3,3-dimethyl-2-({5-[(1,3cis)-3-{2-[(9S)-7-(4-chlorophenyl)-4,5,13-trimethyl-3-thia-1,8,11,12-tetraazatricyclo[8.3.0.0^2,^6]trideca-2(6),4,7,10,12-pentaen-9-yl]acetamido}cyclobutoxy]-1-benzofuran-2-yl}formamido)butanoyl]-4-hydroxy-N-[(1S)-1-[4-(4-methyl-1,3-thiazol-5-yl)phenyl]ethyl]pyrrolidine-2-carboxamide] as the molecule, how does the “in vivo growth of SU-DHL-6 xenografts” value (SU-DHL-6 xenografts; 6MPK Q3D iv dosing, n=10 (FIG. 10)) read?
Answer: Its value is “tumor regression”.

Question: And the Emax (c-myc in 22RV-1 cells)?
Answer: The Emax was 100%.

Question: And the DC50 (c-myc in 22RV-1 cells)?
Answer: The DC50 was under 0.01 µM.

Question: Which results are given for `Cc1ncsc1-c1ccc([C@H](C)NC(=O)[C@@H]2C[C@@H](O)CN2C(=O)[C@@H](C(C)C)n2cc(-c3cc(F)cc(O[C@H]4C[C@@H](NC(=O)C[C@@H]5N=C(c6ccc(Cl)cc6)c6c(sc(C)c6C)-n6c(C)nnc65)C4)c3)cn2)cc1` [Example 246]?
Answer: Emax (c-myc in 22RV-1 cells): 83%; DC50 (c-myc in 22RV-1 cells): 0.1 to 1 µM
